Test results from patent US20250073198A1, “COMPOUNDS AND USE THEREOF FOR THE TREATMENT OF DISEASES ASSOCIATED WITH IMPAIRED ß-GALACTOSIDASE ACTIVITY” (DORPHAN SA, priority 2022, published 2025).

How the values were obtained:
cathepsin B = molecular target: T1, cathepsin B (Sus scrofa, UniProt A1E295); test: In-vitro enzymatic activity assay on isolated cathepsin B (pork liver homogenate, Z-FR-AMC substrate); format: biochemical; conditions: for IC50: ester prodrug hydrolysed with NaOH to the free acid, 1 hour at 37° C., pH 6.0, read-out: IC50, inhibition of cathepsin B (catB) activity in pork liver homogenate; for inhibitory activity against isolated catB, compared to E64c: pork liver homogenate, result in words
T1 construct: from tissue; host or cells: pork liver homogenate
Protocol: The ability of the compounds VRO006_hydrol, VRO047_hydrol, VRO052_hydrol, VRO059_hydrol, VRO073_hydrol, VRO109_hydrol, VRO244_hydrol, VRO001_hydrol, VRO082_hydrol, VRO035_hydrol, VRO119_hydrol, and VRO243_hydrol to inhibit isolated cathepsin B was assessed in an enzymatic assay and compared to the inhibitory activity of the prior art E64c. In this assay, the compounds VRO006, VRO042, VRO047, VRO052, VRO059, VRO073, VRO109, VRO244, VRO001, VRO082, VRO035, VRO119, and VRO243 were used and the assay was performed in the presence of NaOH, in order to simulate the ester cleavage that occurs within the gastrointestinal tract, and to release the free acid (VROxxx_hydrol compound) from the prodrug (corresponding VROxxx compound). The chemical structures of compounds […], VRO042, VRO047, VRO052, VRO059, VRO073, […] and VRO244 and their chemical names are provided in [Table 2] above. The structures of VRO001, VRO082, VRO035, VRO119 and VRO243 are provided in [Table 3] below. The cathepsin B was from pork liver homogenate.
The enzymatic assay was performed as follows. Samples of homogenized pork liver (75 mg of fresh tissue per sample) were incubated for 1 hour at 37° C. with Z—FR-AMC (benzyloxycarbonyl-L-[…]-4-methylcoumaryl-7-amide) at […] in 1 M sodium acetate pH 6.0, supplemented with 2.5 mM EDTA, 2.5 mM DTT and 0.1% Triton X-100, and graded concentrations of test substances (between 0.1 nM and […]). The stock solutions of test substances were at 20 mM in DMSO. Fluorescence was determined at 445 nm using 365 nm as the excitation wavelength.

[1] = including pediatric patients; cited from earlier work
[2] = prior art statement; cited from earlier work

Row | SMILES | IC50 (cathepsin B) | inhibitory activity against isolated catB, compared to E64c (cathepsin B) | toxicity for human in 3-year clinical trials [1] | penetration of the blood-brain barrier [2]
1 | COCCCNC(=O)[C@H](CC(C)C)NC(=O)[C@H]1O[C@@H]1C(=O)O [VRO042_hydrol, (2S,3S)-3-(((S)-1-((3-3-methoxypropyl)amino)-4-methyl-1-oxopentan-2-yl)carbamoyl)oxirane-2-carboxylic acid] | ≤ 100 nM | maintaining efficient inhibition of catB |  | 
2 | O=C(NCc1ccccc1F)[C@H](CC(F)(F)F)NC(=O)[C@H]1O[C@@H]1C(=O)O [VRO244_hydrol, (2S,3S)-3-(((S)-4,4,4-trifluoro-1-((2-fluorobenzyl)amino)-1-oxobutan-2-yl)carbamoyl)oxirane-2-carboxylic acid] | ≤ 100 nM | only slightly lower than the prior art E64c |  | 
3 | CC(C)C[C@H](NC(=O)[C@H]1O[C@@H]1C(=O)O)C(=O)NCCCN1CCCCC1 [VRO059_hydrol, (2S,3S)-3-(((S)-4-methyl-1-oxo-1-((3-(piperidin-1-yl)propyl)amino)pentan-2-yl)carbamoyl)oxirane-2-carboxylic acid] | ≤ 100 nM | almost similar to E64c |  | 
4 | CC(C)CCNC(=O)C(Cc1ccccn1)NC(=O)C1OC1C(=O)O (stereo not shown) [VRO119_hydrol] | > 100 nM | not tolerated |  | 
5 | COCC(NC(=O)C1OC1C(=O)O)C(=O)NCCC(C)C (stereo not shown) [VRO082_hydrol] | > 100 nM | did not allow to maintain the inhibitory activity |  | 
6 | CC(C)C[C@H](NC(=O)[C@H]1O[C@@H]1C(=O)O)C(=O)NCCc1ccccn1 [VRO052_hydrol, (2S,3S)-3-(((S)-4-methyl-1-oxo-1-((2-(pyridin-2-yl)ethyl)amino)pentan-2-yl)carbamoyl)oxirane-2-carboxylic acid] | ≤ 100 nM | only slightly reduced |  | 
7 | CC(C)C[C@H](NC(=O)[C@H]1O[C@@H]1C(=O)O)C(=O)NCc1ccccc1F [VRO073_hydrol, (2S,3S)-3-(((S)-1-((2-fluorobenzyl)amino)-4-methyl-1-oxopentan-2-yl)carbamoyl)oxirane-2-carboxylic acid] | ≤ 100 nM | only slightly reduced |  | 
8 | CCOC(=O)[C@H]1O[C@@H]1C(=O)N[C@@H](CC(C)C)C(=O)NCCC(C)C [Compound E64d] |  |  | non-toxicity for human | low penetration of the blood-brain barrier
9 | CC(C)CCNC(=O)C(CC(C)C)N(C)C(=O)C1OC1C(=O)O (stereo not shown) [VRO001_hydrol] | > 100 nM | unable to inhibit catB |  | 

The next lines start with results.

Row | IC50 (cathepsin B) | inhibitory activity against isolated catB, compared to E64c (cathepsin B) | SMILES | toxicity for human in 3-year clinical trials [1] | penetration of the blood-brain barrier [2]
10 | > 100 nM | drastic loss of activity | CC(C)CCN(C)C(=O)C(CC(F)(F)F)NC(=O)C1OC1C(=O)O (stereo not shown) [VRO243_hydrol] |  | 
11 | ≤ 100 nM | almost the same activity as E64c | COCCNC(=O)[C@H](CC(C)C)NC(=O)[C@H]1O[C@@H]1C(=O)O [VRO047_hydrol, (2S,3S)-3-(((S)-1-((2-2-methoxyethyl)amino)-4-methyl-1-oxopentan-2-yl)carbamoyl)oxirane-2-carboxylic acid] |  | 
12 | ≤ 100 nM |  | CC(C)CCN(C)C(=O)[C@H](CC(C)C)NC(=O)[C@H]1O[C@@H]1C(=O)O [VRO006_hydrol, (2S,3S)-3-(((S)-1-(isopentyl(methyl)amino)-4-methyl-1-oxopentan-2-yl)carbamoyl)oxirane-2-carboxylic acid] |  | 
13 | ≤ 100 nM | increased compared to E64c | CC(C)CCNC(=O)[C@H](CC(F)(F)F)NC(=O)[C@H]1O[C@@H]1C(=O)O [VRO109_hydrol, (2S,3S)-3-(((S)-4,4,4-trifluoro-1-(isopentylamino)-1-oxobutan-2-yl)carbamoyl)oxirane-2-carboxylic acid] |  | 
14 |  | quite similar to the one of E64c | CCOC(=O)[C@H]1O[C@@H]1C(=O)N[C@@H](CC(C)C)C(=O)N(C)CCC(C)C [VRO006, Ethyl (2S,3S)-3-(((S)-1-(isopentyl(methyl)amino)-4-methyl-1-oxopentan-2-yl)carbamoyl)oxirane-2-carboxylate] |  | 
15 | > 100 nM | inhibitory activity was lost | CC(C)CC(NC(=O)C1OC1C(=O)O)C(=O)NCCC(F)(F)F (stereo not shown) [VRO035_hydrol] |  | 
